Values after ≈ are worked out from the molar mass of the structure shown.
Key:
Coturnix japonica = conditions: acute, oral, mortality
Apis mellifera = conditions: acute; duration: 48 hours; oral; unspecified; mortality
Oncorhynchus mykiss = conditions: acute; duration: 96 hours; mortality
Colinus virginianus = conditions: for LD50: acute, oral, mortality
Tagia sp. = conditions: acute; duration: 14 days; mortality
Canidae = conditions: chronic; duration: 1 years; oral; Dog Other; hematological
Anas platyrhynchos = conditions: for LD50: oral, mortality
Daphnia magna = conditions: chronic/long-term; duration: 21 days; reproduction

## CCCCCCCCCCCCC1=C(OC(C)=O)C(=O)c2ccccc2C1=O [Acequinocyl]
Coturnix japonica; diet
  LD50: > 847 mg/kg
Coturnix japonica
  LD50: > 1940 mg/kg
Apis mellifera
  LD50: > 100 µg/piece
Typhlodromus pyri; acute, duration: 7 days, mortality
  LEL: 300 g/ha
Typhlodromus pyri; not reported, reproduction
  LEL: 300 g/ha
Oncorhynchus mykiss
  LC50: 65 µg/mL (≈ 169 µM)
Colinus virginianus; diet
  LD50: > 159 mg/kg
Colinus virginianus
  LD50: > 300 mg/kg
Colinus virginianus; reproduction developmental
  NOEL: 217 mg/kg-day
Rattus norvegicus; acute, oral, hematological
  NOAEL: 8 mg/kg-day
Rattus norvegicus; acute, oral, mortality
  LD50: > 4860 mg/kg
Rattus norvegicus; chronic, duration: 2 years, clinical signs
  NOAEL: 2.3 mg/kg-day
Rattus norvegicus; reproduction developmental, clinical signs
  NOAEL: 6.9 mg/kg-day
Tagia sp.
  LC50: > 1000 mg/kg
Canidae
  NOAEL: 5 mg/kg-day
Anas platyrhynchos; acute, unspecified
  LD50: > 1940 mg/kg
Anas platyrhynchos; reproductive
  NOEL: 7.48 mg/kg
Anas platyrhynchos; short-term, feed
  LD50: > 1340 mg/kg
Daphnia magna
  NOEC: 0.00098 mg/L

From EPA's ToxValDB 9.5 (doi:10.2903/j.efsa.2008.125r)
